Test results reported in PMC4085797, “Synthetic Inositol Phosphate Analogs Reveal that PPIP5K2 Has a Surface-Mounted Substrate Capture Site that Is a Target for Drug Discovery” (Chemistry & Biology, 2014).
Where a chain is given by its changes, count along the chain named.

What was measured:
Format in all cases: biochemical
PPIP5K2^KD R213A mutant = target: T1, PPIP5K2^KD R213A mutant (Homo sapiens, UniProt O43314, R213A); assay: ATPase activity of R213A mutant; details: Figures 7B and 7C
T1 construct: The kinase domain of human PPIP5K2 (PPIP5K2^KD; residues 1–366); made in house
T1 sequence (O43314 1-366 R213A): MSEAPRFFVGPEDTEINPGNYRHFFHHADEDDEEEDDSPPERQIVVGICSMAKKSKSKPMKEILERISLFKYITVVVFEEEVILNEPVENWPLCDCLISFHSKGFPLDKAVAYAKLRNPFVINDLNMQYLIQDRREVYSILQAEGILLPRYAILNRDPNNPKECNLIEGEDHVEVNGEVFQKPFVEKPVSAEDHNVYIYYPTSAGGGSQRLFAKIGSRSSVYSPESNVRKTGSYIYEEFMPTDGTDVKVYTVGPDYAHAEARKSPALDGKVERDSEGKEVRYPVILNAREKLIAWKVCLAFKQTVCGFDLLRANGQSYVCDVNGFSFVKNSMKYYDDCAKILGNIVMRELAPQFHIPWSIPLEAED
Procedure: (§1) The initial InsP6 concentration was either 500 nM, 70 nM, or 40 nM. Various concentrations of 2,5-di-O-Bn-InsP4 were present as indicated. Radioactivity was assessed using an in-line Flo1 detector. The ADP-driven dephosphorylation of 100 nM 1,5-[PP]2-InsP4 by PPIP5K2^KD was usually determined by a luminescence-based assay of ATP accumulation ([Riley et al., 2012; Weaver et al., 2013]). The IC50 values were determined using GraphPad Prism v6.02 (n ≥ 3). In some experiments, 1,5-[PP]2-[^3H]InsP4 dephosphorylation by PPIP5K2^KD was assayed in 50 μl buffer containing 50 mM KCl, 20 mM HEPES pH 7.0, 7 mM MgSO4, 5 mM ADP, 1 mM EDTA. Reactions were then quenched, neutralized, and analyzed with HPLC using a Partisphere SAX column ([Weaver et al., 2013]); 1 ml fractions were collected for liquid scintillation spectrometry. The ATPase activity of PPIP5K2^KD (10–270 μg/ml) was assayed from Pi release following incubation at 37°C for 120–180 min in 20 μl reaction mixtures containing 20 mM Tris/HCl, pH 7.5, 10 mM ATP, 100 mM KCl, 0.1 mM EDTA, and 13 mM MgCl2.

PPIP5K2^KD H194A mutant = target: T2, PPIP5K2^KD H194A mutant (Homo sapiens, UniProt O43314, H194A); assay: ATPase activity of H194A mutant; details: data not shown
T2 construct: The kinase domain of human PPIP5K2 (PPIP5K2^KD; residues 1–366); made in house
T2 sequence (O43314 1-366 H194A): T1 sequence (O43314 1-366 R213A) with H194A, A213R
Procedure: as §1

[1] = target: T3, PPIP5K2^KD (kinase domain of human PPIP5K2) (Homo sapiens, UniProt O43314); assay: Reverse-kinase assay: ADP-driven dephosphorylation of 1,5-[PP]2-InsP4, luminescence-based assay of ATP accumulation; details: for IC50: 100 nM [PP]2-InsP4, key of Figure 4B, n = 3, read-out: IC50, inhibition of ADP-driven dephosphorylation of [PP]2-InsP4
T3 construct: The kinase domain of human PPIP5K2 (PPIP5K2^KD; residues 1–366); made in house
T3 sequence (O43314 1-366): T1 sequence (O43314 1-366 R213A) with A213R
Procedure: The six compounds that were selected for the dose-response curves in the assays of ATP hydrolysis (Figure 4A) were now investigated for their effects upon diphosphoinositol polyphosphate metabolism by PPIP5K2^KD (Figure 4B). We used a high-throughput reverse-kinase assay that records ATP generated from ADP during the dephosphorylation of 100 nM 1,5-[PP]2-InsP4 ([Riley et al., 2012; Weaver et al., 2013]). Each of the tested analogs inhibited [PP]2-InsP4 metabolism by PPIP5K2^KD (Figure 4B). […] However, the inhibition by 2,5-di-O-Bn-InsP4 (10) was more unexpected because due to its bulk, and its less negative charge compared to physiological substrates, we predict it to be a poor ligand for the active site of the highly specific PPIP5K2^KD ([Wang et al., 2012]). Nevertheless, its ability to inhibit reverse-kinase activity was directly confirmed by high-performance liquid chromatography (HPLC) analysis of [PP]2-[^3H]InsP4 dephosphorylation (Figures S1A–S1C available online).
as §1

PPIP5K2^KD E192G mutant = target: T4, PPIP5K2^KD E192G mutant (Homo sapiens, UniProt O43314, E192G); assay: ATPase activity of E192G mutant
T4 construct: The kinase domain of human PPIP5K2 (PPIP5K2^KD; residues 1–366); made in house
T4 sequence (O43314 1-366 E192G): T1 sequence (O43314 1-366 R213A) with E192G, A213R
Procedure: as §1
Protein Expression, Purification, Crystallization and Structure Determination […]
The structure was further manually rebuilt with COOT and refined with PHENIX and
REFMAC from the CCP4 package. Ligand topology and parameter files were prepared using
the PRODRG server. The molecular graphics representations were prepared with the program
PyMol (Schrödinger, LLC). The 2D ligand-protein interaction diagrams were generated by
LigPlot+. Atomic coordinates and structure factors have been deposited with the Protein Data
Bank with accession codes: 4NZM, 4NZN, 4NZO.
Mutants were generated using a site-directed mutagenesis kit (Stratagene). Pairs of complementary
primers were designed as shown below, with mutagenic primers underlined (only 5’ primers are
All mutated constructs were sequenced. Mutant proteins were expressed and purified as for wild-

Row | SMILES | stimulation of ATPase activity vs wild-type (in words) (PPIP5K2^KD R213A mutant) | ATPase activity in the presence of analog (in words) (PPIP5K2^KD H194A mutant) | inhibition of [PP]2-InsP4 metabolism (in words) ([1]; 100 nM 1,5-[PP]2-InsP4, Figure 4B) | IC50 [1] [nM] | rate of ligand-stimulated ATPase activity vs wild-type (in words) (PPIP5K2^KD E192G mutant)
1 | O=C(CP(=O)(O)O)O[C@@H]1[C@@H](OP(=O)(O)O)[C@H](OP(=O)(O)O)[C@H](OCc2ccccc2)[C@H](OP(=O)(O)O)[C@H]1OP(=O)(O)O [compound 2, 2-O-benzyl-5-O-α-phosphonoacetyl-myo-inositol 1,3,4,6-tetrakisphosphate] | substantially impaired degree of stimulation | did not exhibit any detectable ATPase activity | equally efficient | 420 | neither of these particular mutations altered the rate
2 | O=P(O)(O)O[C@@H]1[C@@H](OCc2ccccc2)[C@H](OP(=O)(O)O)[C@@H](OP(=O)(O)O)[C@@H](OCc2ccccc2)[C@H]1OP(=O)(O)O [compound 10, 2,5-di-O-Bn-InsP4] | substantially impaired degree of stimulation | did not exhibit any detectable ATPase activity |  | 170 | neither of these particular mutations altered the rate
